Toxic doses and inconclusive results are not listed. Cut-off read from the data, not from the text of the source: active = T/C of 150% or more; inactive = T/C below 125%.
Tested on: L1210 leukemia ip in BDF1 mice, survival T/C
Experiment: NCI In Vivo Anticancer Drug Screen. Data for tumor model L1210 Leukemia (intraperitoneal) in B6D2F1 (BDF1) mice
Conditions: endpoint: mean survival time, higher = longer survival
Procedure, shortened: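 Ratio derived from survival: compound-dosed mice over vehicle-dosed mice, all bearing a transplantable tumor.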

[1] = dose: 50.0 mg/kg/injection, schedule: Q01DX009 (ip), vehicle: saline with Tween-80
[2] = dose: 100.0 mg/kg/injection, schedule: Q01DX009 (ip), vehicle: saline with Tween-80
[3] = dose: 100.0 mg/kg/injection, schedule: Q04DX003 (ip), vehicle: saline with Tween-80
[4] = dose: 100.0 mg/kg/injection, schedule: Q01DX009 (ip), vehicle: Klucel (hydroxypropylcellulose) (HPC)
[5] = dose: 200.0 mg/kg/injection, schedule: Q01DX009 (ip), vehicle: Klucel (hydroxypropylcellulose) (HPC)
[6] = dose: 400.0 mg/kg/injection, schedule: Q01DX009 (ip), vehicle: Klucel (hydroxypropylcellulose) (HPC)
[7] = dose: 100.0 mg/kg/injection, schedule: Q04DX002 (ip), vehicle: Klucel (hydroxypropylcellulose) (HPC)
[8] = dose: 200.0 mg/kg/injection, schedule: Q04DX002 (ip), vehicle: Klucel (hydroxypropylcellulose) (HPC)
[9] = dose: 400.0 mg/kg/injection, schedule: Q04DX002 (ip), vehicle: Klucel (hydroxypropylcellulose) (HPC)
[10] = dose: 100.0 mg/kg/injection, schedule: Q01DX001 (ip), vehicle: carboxymethylcellulose (CMC)
[11] = dose: 200.0 mg/kg/injection, schedule: Q01DX001 (ip), vehicle: carboxymethylcellulose (CMC)
[12] = dose: 400.0 mg/kg/injection, schedule: Q01DX001 (ip), vehicle: carboxymethylcellulose (CMC)
[13] = dose: 25.0 mg/kg/injection, schedule: Q04DX003 (ip), vehicle: Klucel (hydroxypropylcellulose) (HPC)
[14] = dose: 50.0 mg/kg/injection, schedule: Q04DX003 (ip), vehicle: Klucel (hydroxypropylcellulose) (HPC)
[15] = dose: 100.0 mg/kg/injection, schedule: Q04DX002 (ip), vehicle: saline with Tween-80
[16] = dose: 200.0 mg/kg/injection, schedule: Q04DX002 (ip), vehicle: saline with Tween-80
[17] = dose: 400.0 mg/kg/injection, schedule: Q04DX002 (ip), vehicle: saline with Tween-80
[18] = dose: 200.0 mg/kg/injection, schedule: Q04DX003 (ip), vehicle: saline with Tween-80
[19] = dose: 400.0 mg/kg/injection, schedule: Q04DX003 (ip), vehicle: saline with Tween-80

Measured: T/C

O=C(/C=C\c1ccc(/C=C/C(=O)Nc2cccc(C3=NCCCN3)c2)cc1)Nc1cccc(C2=NCCCN2)c1
inactive: dose: 0.62 mg/kg/injection, schedule: Q01DX Z (ip), vehicle: carboxymethylcellulose (CMC) 117 % of control | dose: 12.5 mg/kg/injection, schedule: Q01DX Z (oral), vehicle: carboxymethylcellulose (CMC) 103 % of control | dose: 25.0 mg/kg/injection, schedule: Q01DX Z (oral), vehicle: carboxymethylcellulose (CMC) 103 % of control | dose: 50.0 mg/kg/injection, schedule: Q01DX Z (oral), vehicle: carboxymethylcellulose (CMC) 102 % of control | dose: 100.0 mg/kg/injection, schedule: Q01DX Z (oral), vehicle: carboxymethylcellulose (CMC) 97 % of control
active: dose: 5.0 mg/kg/injection, schedule: Q01DX Z (ip), vehicle: carboxymethylcellulose (CMC) 225 % of control

CCOC(=O)C1=C(C)NC(=O)NN1C(=O)OCC
inactive: dose: 50.0 mg/kg/injection, schedule: Q01DX009 (ip), vehicle: saline 113 % of control

N#CC1C(=O)c2ccccc2C1=O
inactive: dose: 25.0 mg/kg/injection, schedule: Q01DX009 (ip), vehicle: saline with Tween-80 92 % of control | [1] 91 % of control | [2] 89 % of control | [3] 94 % of control

Cc1ccc(CNC(=O)Nc2cccc(Cl)c2)cc1C
inactive: [4] 97 % of control | [5] 92 % of control | [6] 103 % of control

O=C(COc1ccc(Br)cc1)Nc1ccc(Cl)cc1
inactive: [7] 95 % of control | [8] 92 % of control | [9] 89 % of control

O=c1[nH][nH]c(=O)c2c(C3OC(CO)C(O)C3O)[nH]nc12 (configuration not stated)
inactive: dose: 100.0 mg/kg/injection, schedule: Q01DX005 (ip), vehicle: saline 90 % of control | dose: 200.0 mg/kg/injection, schedule: Q01DX005 (ip), vehicle: saline 97 % of control

O=[N+]([O-])c1ccc(-c2ccc([N+](=O)[O-])cc2)cc1
inactive: [7] 98 % of control | [8] 124 % of control | [9] 95 % of control

CCCCC(C)(C)COC(=O)Nc1ccccc1
inactive: dose: 100.0 mg/kg/injection, schedule: Q04DX003 (ip), vehicle: other 92 % of control | dose: 200.0 mg/kg/injection, schedule: Q04DX003 (ip), vehicle: other 104 % of control | dose: 400.0 mg/kg/injection, schedule: Q04DX003 (ip), vehicle: other 101 % of control

CC(=O)c1cccc2c(C(C)=O)cccc12
inactive: dose: 50.0 mg/kg/injection, schedule: Q01DX001 (ip), vehicle: carboxymethylcellulose (CMC) 105 % of control | [10] 103 % of control | [11] 111 % of control | [12] 103 % of control

CN(C)/N=C/c1ccc(N(C)C)cc1
inactive: dose: 25.0 mg/kg/injection, schedule: Q01DX009 (ip), vehicle: Klucel (hydroxypropylcellulose) (HPC) 100 % of control | [13] 101 % of control | dose: 50.0 mg/kg/injection, schedule: Q01DX009 (ip), vehicle: Klucel (hydroxypropylcellulose) (HPC) 112 % of control | [14] 96 % of control | dose: 100.0 mg/kg/injection, schedule: Q04DX003 (ip), vehicle: Klucel (hydroxypropylcellulose) (HPC) 111 % of control

C=Cc1ccc(C(=O)O)cc1
inactive: [15] 98 % of control | [16] 98 % of control | [17] 106 % of control

CCCC(=O)/C=C/c1ccc(C)cc1
inactive: dose: 100.0 mg/kg/injection, schedule: Q04DX003 (ip), vehicle: saline 96 % of control | dose: 200.0 mg/kg/injection, schedule: Q04DX003 (ip), vehicle: saline 112 % of control | dose: 400.0 mg/kg/injection, schedule: Q04DX003 (ip), vehicle: saline 96 % of control

CCc1nc(C#N)c(N)o1
inactive: dose: 5.0 mg/kg/injection, schedule: Q01DX001 (ip), vehicle: saline 98 % of control | dose: 10.0 mg/kg/injection, schedule: Q01DX001 (ip), vehicle: saline 103 % of control | dose: 20.0 mg/kg/injection, schedule: Q01DX001 (ip), vehicle: saline 97 % of control | dose: 40.0 mg/kg/injection, schedule: Q01DX001 (ip), vehicle: saline 95 % of control | dose: 80.0 mg/kg/injection, schedule: Q01DX001 (ip), vehicle: saline 98 % of control

CC(C)(C)P(=O)(O)O
inactive: [2] 95 % of control

O=C(NCCCCCCNC(=O)Nc1cccc2ccccc12)Nc1cccc2ccccc12
inactive: [4] 97 % of control | [5] 103 % of control | [6] 92 % of control

COc1ccc(/C=C/C2=CC(=O)CC(c3ccc(OC)c(OC)c3)C2)cc1OC (configuration not stated)
inactive: [15] 102 % of control | [16] 102 % of control | [17] 105 % of control

CC(=O)c1ccc(N2C(=O)C=CC2=O)cc1
inactive: [13] 114 % of control | [14] 115 % of control

CC(=O)NNC(=O)Nc1cccc(C(F)(F)F)c1
inactive: [1] 94 % of control | [2] 91 % of control

O=c1nc(NO)ccn1C1CCCCO1 (configuration not stated)
inactive: [10] 95 % of control | [11] 95 % of control | [12] 95 % of control

O=C(O/C(=N\N1N=NC(c2ccccc2)C1c1ccccc1)c1ccccc1)c1ccccc1 (configuration not stated)
inactive: [10] 87 % of control | [11] 89 % of control | [12] 89 % of control

Cc1[nH]c(=O)[nH]c(=O)c1CCO
inactive: dose: 100.0 mg/kg/injection, schedule: Q01DX001 (ip), vehicle: saline 96 % of control | dose: 200.0 mg/kg/injection, schedule: Q01DX001 (ip), vehicle: saline 102 % of control | dose: 400.0 mg/kg/injection, schedule: Q01DX001 (ip), vehicle: saline 100 % of control

COc1ccc(/C=C2\N=C(c3ccc([N+](=O)[O-])cc3)OC2=O)cc1
inactive: [4] 93 % of control | [5] 91 % of control | [6] 95 % of control

CCCCC(=O)N/N=C/c1ccc(Cl)cc1
inactive: [10] 93 % of control | [11] 107 % of control | [12] 91 % of control

CC1(C)OC(CI)C(COS(C)(=O)=O)O1 (configuration not stated)
inactive: [3] 114 % of control | dose: 115.0 mg/kg/injection, schedule: Q01DX001 (ip), vehicle: steriod suspending solution 97 % of control | dose: 173.0 mg/kg/injection, schedule: Q01DX001 (ip), vehicle: steriod suspending solution 90 % of control | [18] 105 % of control | [19] 111 % of control

CCOC(=O)c1ccc(Nc2nnc(-c3ccccc3Cl)s2)cc1
inactive: dose: 25.0 mg/kg/injection, schedule: Q04DX002 (ip), vehicle: gum acacia 98 % of control | dose: 100.0 mg/kg/injection, schedule: Q04DX002 (ip), vehicle: gum acacia 88 % of control | dose: 200.0 mg/kg/injection, schedule: Q04DX002 (ip), vehicle: gum acacia 102 % of control | dose: 400.0 mg/kg/injection, schedule: Q04DX002 (ip), vehicle: gum acacia 94 % of control

O=C(c1ccccc1)C1(c2ccccc2)SC1(C(=O)c1ccccc1)c1ccccc1 (configuration not stated)
inactive: [3] 92 % of control | [18] 91 % of control | [19] 87 % of control

Nc1n[nH]c([N+](=O)[O-])n1
inactive: dose: 100.0 mg/kg/injection, schedule: Q04DX003 (ip), vehicle: saline sonified 100 % of control | dose: 200.0 mg/kg/injection, schedule: Q04DX003 (ip), vehicle: saline sonified 103 % of control | dose: 400.0 mg/kg/injection, schedule: Q04DX003 (ip), vehicle: saline sonified 109 % of control

Cc1ccc(C(=O)C2CN(C)CCC2(O)c2ccc(C)cc2)cc1 (configuration not stated)
inactive: [3] 96 % of control | [18] 103 % of control | [19] 96 % of control

O=C1N(O)C2(CCCC(O)C2O)C(=O)C12CCCCC2 (configuration not stated)
inactive: dose: 75.0 mg/kg/injection, schedule: Q01DX001 (ip), vehicle: saline 103 % of control | dose: 150.0 mg/kg/injection, schedule: Q01DX001 (ip), vehicle: saline 96 % of control | dose: 300.0 mg/kg/injection, schedule: Q01DX001 (ip), vehicle: saline 96 % of control

Source: PubChem BioAssay AID248 (DTP/NCI, 2004)
